Test system: NCI-N87 (human stomach cancer)
Test: Combination of Compound 1 and other antitumor agents (in vitro), CellTiter-Glo, median effect method
Type: cell-based
Protocol: The supplier of each reagent, the suppliers of tumor cell lines, the media used, and the numbers of cells to be inoculated are shown in the tables below.
The cells were inoculated at 20 μL/well to a 384-well culture plate (Corning Inc.). The plate inoculated with the cells were cultured in an incubator set to 37° C. and 5% CO2. On the day following inoculation, each of mixed solutions of Compound 1 and each other antitumor agent at varying combinations of concentrations was added to the cells. Specifically, 8 serial dilutions (including (0 nM)) of Compound 1 and 10 serial dilutions (including (0 nM)) of the other antitumor agent were prepared using Leibovitz's L-15 medium containing 10% FBS, or ATCC formulated RPMI-1640 medium containing 10% FBS. Drug solutions in which equal amounts of the respective serial dilutions of the compounds were dispensed were mixed at a ratio of 1:1 to prepare a total of 80 mixed drug solutions including every combination. Each of these mixed drug solutions was added at 5 μL/well (N=4) to the plate, followed by further culture for 3 days under conditions of 37° C. and 5% CO2.
Three days later, CellTiter-Glo™ 2.0 Reagent (Promega Corporation) was added thereto at 25 μL/well, and chemiluminescence was measured using a plate reader (EnSpire® Multimode Plate Reader, PerkinElmer Japan Co., Ltd.).
The enhancement of an effect by combined use of the drugs was evaluated according to a method known in the art (a method described in Trends Pharmacol. Sci., 4, 450-454, 1983 or Pharmacol Rev., 58 (3), 621-81, 2006).
An average value from 4 wells of each combination was calculated from the obtained data, and a cell survival rate normalized against a control supplemented with a medium containing a vehicle was calculated. A Fa (fraction of affect) value was calculated by subtracting the cell survival rate from 1. Median effect analysis software CalcuSyn 2.0 (CalcuSyn, Inc.) for calculation by the median effect method was used in the calculation of CI.
As for the combinations of the concentrations of both the drugs for calculating CI, a Fa value closer to 1 presumably means a concentration range in which one of the drugs had too strong an effect, and a Fa value closer to 0 presumably means a concentration range in which any of the drugs had too weak an effect. Since these concentration ranges were not appropriate for the discussion of a synergistic effect, combinations that satisfied 0.2 S Fa 0.8 were extracted from the combinations of the respective concentrations of Compound 1 and the other antitumor agent on the basis of the calculated Fa value.
An effect of combined use was determined as shown in the table below (Pharmacol Rev., 58 (3), p. 621-81, 2006).

[1] = Compound 1 3.70 nM + FdUrd 333333 nM, ratio 1:90000, NCI-N87
[2] = Compound 1 3.70 nM + Gemcitabine 1.37 nM, ratio 1:0.37, NCI-N87
[3] = Compound 1 3.70 nM + Gemcitabine 4.12 nM, ratio 1:1.1, NCI-N87
[4] = Compound 1 3.70 nM + Gemcitabine 12.3 nM, ratio 1:3.3, NCI-N87
[5] = Compound 1 3.70 nM + Gemcitabine 37.0 nM, ratio 1:10, NCI-N87
[6] = Compound 1 3.70 nM + Gemcitabine 111 nM, ratio 1:30, NCI-N87
[7] = Compound 1 3.70 nM + Gemcitabine 333 nM, ratio 1:90, NCI-N87
[8] = Compound 1 3.70 nM + Paclitaxel 1.85 nM, ratio 1:0.50, NCI-N87
[9] = Compound 1 3.70 nM + Paclitaxel 5.56 nM, ratio 1:1.5, NCI-N87
[10] = Compound 1 3.70 nM + Paclitaxel 16.7 nM, ratio 1:4.5, NCI-N87
[11] = Compound 1 3.70 nM + Trifluridine 12346 nM, ratio 1:3333, NCI-N87
[12] = Compound 1 3.70 nM + Trifluridine 37037 nM, ratio 1:10000, NCI-N87
[13] = Compound 1 3.70 nM + Trifluridine 111111 nM, ratio 1:30000, NCI-N87
[14] = Compound 1 11.1 nM + Cisplatin 687 nM, ratio 1:62, NCI-N87
[15] = Compound 1 11.1 nM + Cisplatin 2062 nM, ratio 1:186, NCI-N87
[16] = Compound 1 11.1 nM + Cisplatin 6185 nM, ratio 1:557, NCI-N87
[17] = Compound 1 11.1 nM + Cisplatin 18556 nM, ratio 1:1670, NCI-N87
[18] = Compound 1 11.1 nM + Cisplatin 55667 nM, ratio 1:5010, NCI-N87
[19] = Compound 1 11.1 nM + FdUrd 4115 nM, ratio 1:370, NCI-N87
[20] = Compound 1 11.1 nM + FdUrd 12346 nM, ratio 1:1111, NCI-N87
[21] = Compound 1 11.1 nM + FdUrd 37037 nM, ratio 1:3333, NCI-N87
[22] = Compound 1 11.1 nM + FdUrd 111111 nM, ratio 1:10000, NCI-N87
[23] = Compound 1 11.1 nM + FdUrd 333333 nM, ratio 1:30000, NCI-N87
[24] = Compound 1 11.1 nM + FdUrd 1000000 nM, ratio 1:90000, NCI-N87
[25] = Compound 1 11.1 nM + Paclitaxel 0.206 nM, ratio 1:0.019, NCI-N87
[26] = Compound 1 11.1 nM + Paclitaxel 0.617 nM, ratio 1:0.056, NCI-N87
[27] = Compound 1 11.1 nM + Paclitaxel 1.85 nM, ratio 1:0.17, NCI-N87
[28] = Compound 1 11.1 nM + Paclitaxel 5.56 nM, ratio 1:0.50, NCI-N87
[29] = Compound 1 11.1 nM + Trifluridine 4115 nM, ratio 1:370, NCI-N87
[30] = Compound 1 11.1 nM + Trifluridine 12346 nM, ratio 1:1111, NCI-N87
[31] = Compound 1 11.1 nM + Trifluridine 37037 nM, ratio 1:3333, NCI-N87
[32] = Compound 1 11.1 nM + Trifluridine 111111 nM, ratio 1:10000, NCI-N87
[33] = Compound 1 33.3 nM + Cisplatin 2062 nM, ratio I:62, NCI-N87
[34] = Compound 1 33.3 nM + FdUrd 12346 nM, ratio 1:370, NCI-N87
[35] = Compound 1 […] + Gemcitabine 4.12 nM, ratio 1:10, NCI-N87
[36] = Compound 1 […] + Gemcitabine 12.3 nM, ratio 1:30, NCI-N87
[37] = Compound 1 […] + Gemcitabine 37.0 nM, ratio 1:90, NCI-N87

C=CC(=O)N1CCC[C@@H](n2nc(C(=O)Nc3ccc(CC(=O)N(C)C)c(C)c3C)c3c(N)ncnc32)C1 [Compound 1, (R)-1-(1-acryloylpiperidin-3-yl)-4-amino-N-(4-(2-(dimethylamino)-2-oxoethyl)-2,3-dimethylphenyl)-1H-pyrazolo[3,4-d]pyrimidine-3-carboxamide]
CI [1]: 0.47
Fa [1]: 0.62
CI [2]: 0.15
Fa [2]: 0.75
CI [3]: 0.12
Fa [3]: 0.77
CI [4]: 0.10
Fa [4]: 0.80
CI [5]: 0.11
Fa [5]: 0.78
CI [6]: 0.11
Fa [6]: 0.78
CI [7]: 0.12
Fa [7]: 0.77
CI [8]: 0.84
Fa [8]: 0.41
CI [9]: 0.42
Fa [9]: 0.64
CI [10]: 0.55
Fa [10]: 0.71
CI [11]: 0.51
Fa [11]: 0.57
CI [12]: 0.51
Fa [12]: 0.61
CI [13]: 0.51
Fa [13]: 0.67
CI [14]: 0.87
Fa [14]: 0.59
CI [15]: 0.71
Fa [15]: 0.64
CI [16]: 0.48
Fa [16]: 0.74
CI [17]: 0.50
Fa [17]: 0.77
CI [18]: 0.90
Fa [18]: 0.79
CI [19]: 0.79
Fa [19]: 0.61
CI [20]: 0.55
Fa [20]: 0.68
CI [21]: 0.58
Fa [21]: 0.67
CI [22]: 0.46
Fa [22]: 0.73
CI [23]: 0.52
Fa [23]: 0.75
CI [24]: 0.31
Fa [24]: 0.79
CI [25]: 0.58
Fa [25]: 0.69
CI [26]: 0.52
Fa [26]: 0.71
CI [27]: 0.61
Fa [27]: 0.69
CI [28]: 0.44
Fa [28]: 0.78
CI [29]: 0.79
Fa [29]: 0.69
CI [30]: 0.51
Fa [30]: 0.77
CI [31]: 0.63
Fa [31]: 0.74
CI [32]: 0.49
Fa [32]: 0.80
CI [33]: 0.73
Fa [33]: 0.80
CI [34]: 0.76
Fa [34]: 0.80
CI [35]: 0.21
Fa [35]: 0.68
CI [36]: 0.23
Fa [36]: 0.69
CI [37]: 0.02
Fa [37]: 0.71

— patent US11696917B2, “Agent enhancing antitumor effect using pyrazolo[3,4-d]pyrimidine compound” (TAIHO PHARMACEUTICAL CO., LTD., priority 2017, dated 2023)
